From article PMC7274485, “A symbiotic bacterium of shipworms produces a compound with broad spectrum anti-apicomplexan activity” (PLoS Pathogens, 2020)
pEC50: −log10 of the molar value. Where two headings read alike, the source gives them in different places.

Legend:
[1] = system: Plasmodium falciparum; assay: P. falciparum-infected erythrocyte proliferation, SYBR green incorporation; assay type: cell-based; details: Plasmodium falciparum, Erythrocyte
Excerpt: The maintenance of Plasmodium falciparum cultures and conducting of in vitro inhibitor response assays have been previously described.

[2] = system: intracellular T. gondii RH strain; assay: Immunofluorescence assay (anti-SAG1) of T. gondii-infected HFF cells; assay type: cell-based, Toxoplasma gondii; details: RH strain in HFF; 60 nM trtE for 24 hours (Fig 2B)
Excerpt: For our initial study, we chose to look for anti-apicomplexan compounds in Teredinibacter turnerae. T. turnerae is a gill symbiotic bacterium common to many species of shipworms. We grew two strains of T. turnerae, T7901 [1] and T7902 [24], in shipworm bacterial media (SBM), pelleted the cells and tested the culture supernatants for activity against T. gondii. We chose T. gondii, a ubiquitous coccidian parasite, as a target parasite because it represents a significant human and animal pathogen, it is easily propagated in vitro and is amenable to genetic manipulation. T. gondii is often used as a model for other, more challenging apicomplexans. […] Parasites were evaluated after 24 hours of treatment by immunofluorescence (IFA) microscopy with rabbit antibody to the T. gondii surface antigen, SAG1 [27]. […]
For all IFAs, the investigator reading the slides and collecting images was blind to the sample treatment. […] 24 hours post treatment, infected cells were fixed with methanol, and parasites detected with rabbit anti-SAG1 antibody for T. gondii or rabbit anti-gp15 for C. parvum as we have described previously. […] This CE11 line is transiently transfected with a plasmid that expresses nanoluciferase from a B. divergens promoter and green fluorescence protein-blasticidin (gfp-bsd) from the selection cassette. […]

[3] = system: extracellular T. gondii tachyzoites; assay: Extracellular T. gondii tachyzoites treated 2 hours, washed, then infection of HFF quantified by luciferase; assay type: cell-based, Toxoplasma gondii
Protocol: Because we had tested the compound against intracellular parasites, it was unclear if trtE was exerting a direct effect on the parasites, or if trtE acted indirectly on the parasites by modulating host cell pathways. […] Growth of the parasites was measured 24 hours later by luciferase expression.
To determine the direct effect of trtE on T. gondii, RH GFP/Luc tachyzoites that had exited from host cells were combined with trtE at varying concentrations and incubated at 37°C and 5% CO2 for 2 hours. Tachyzoites in 0.01% DMSO were run in parallel. The parasites were washed to remove compound and added to 96-well plates containing confluent HFFs. Growth was monitored 24 hours later using Bright-glo Luciferase assay system (Promega). Percent inhibition was calculated as ((luciferase reading DMSO treated parasites—luciferase reading of trtE treated parasites)/ luciferase reading DMSO treated parasites)*100.

`CC1CCC=CC=CCCC(O)CC(=O)CC2CCC(C)C3(O2)O[B-]24OC(C(=O)O1)C1(OC(CCC1C)CC(=O)CC(O)CCC=CC=CCCC(C)OC(=O)C3O2)O4` (centres unmarked) [trtE, tartrolon E] was tested, and the pEC50 ([1]; Table 1, rounded, read-out: EC50 against P. falciparum (Table 1)) was 10.00, the pEC50 ([1]; infected erythrocytes, 72 hours, read-out: EC50 against P. falciparum) was 9.98 and the “Effect of purified trtE on intracellular T. gondii (IFA)” value [2] was “inhibited intracellular T. gondii growth”. The pEC50 ([3]; Toxoplasma gondii, RH strain tachyzoites treated 2 hours, washed, growth in HFF after 24 hours, read-out: EC50 against extracellular T. gondii tachyzoites) was 8.51 and the “Effect of excess K+ ions on trtE activity against extracellular tachyzoites” value ([3]; addition of excess K+ ions, no positive control) was “had no effect”.
